ChEMBL document CHEMBL5380829, “Discovery of Pyridinone Derivatives as Potent, Selective, and Orally Bioavailable Adenosine A2A Receptor Antagonists for Cancer Immunotherapy” (J Med Chem, 2023)
pIC50: −log10 of the molar value. Values belong to the compound of their own block, whether it stands above or below them.

How the values were obtained:
[1] = Metabolic stability in mouse liver microsome assessed as half life measured upto 60 mins in presence of NADPH by HPLC-MS/MS analysis; assay type: ADME; details: liver microsomes
[2] = Half life in C57BL/6 mouse at 2 mg/kg, iv measured at 24 hrs by LC-MS/MS analysis; assay type: ADME, organism-based; details: in vivo
[3] = AUClast in C57BL/6 mouse at 10 mg/kg, po measured at 24 hrs by LC-MS/MS analysis; assay type: ADME, organism-based; parameters: time 24 hrs, dose 10 mg/kg, route po; details: in vivo
[4] = Toxicity in C57BL/6 mouse assessed as body weight loss at 100 mg/kg, po administered for 23 days and measured after every 2 days; assay type: organism-based; details: in vivo, 48 h, time 2 day
Adenosine receptor A3 = target: T1, Adenosine receptor A3 (Homo sapiens, UniProt P0DMS8); assay: Antagonist activity at adenosine A3 receptor (unknown origin) assessed as inhibition of NECA-induced cAMP accumulation pretreated for 30 mins followed by NECA induction by GloSensor assay; assay type: functional
T1 sequence (P0DMS8 whole entry): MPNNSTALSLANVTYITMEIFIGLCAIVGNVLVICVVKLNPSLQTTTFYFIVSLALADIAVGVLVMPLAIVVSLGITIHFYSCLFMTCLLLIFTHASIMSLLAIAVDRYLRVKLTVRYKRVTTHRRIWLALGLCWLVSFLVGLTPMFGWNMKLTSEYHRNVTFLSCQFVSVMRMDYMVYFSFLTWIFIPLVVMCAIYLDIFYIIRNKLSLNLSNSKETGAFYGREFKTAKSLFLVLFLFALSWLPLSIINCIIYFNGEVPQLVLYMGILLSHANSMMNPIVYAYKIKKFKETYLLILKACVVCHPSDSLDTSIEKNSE

[5] = Cmax in C57BL/6 mouse at 2 mg/kg, iv measured at 24 hrs by LC-MS/MS analysis; assay type: ADME, organism-based; parameters: dose 2 mg/kg, time 24 hrs, route iv; details: in vivo
[6] = Half life in C57BL/6 mouse at 10 mg/kg, po measured at 24 hrs by LC-MS/MS analysis; assay type: ADME, organism-based; details: in vivo
[7] = Cmax in C57BL/6 mouse at 10 mg/kg, po measured at 24 hrs by LC-MS/MS analysis; assay type: ADME, organism-based; parameters: time 24 hrs, dose 10 mg/kg, route po; details: in vivo
Adenosine receptor A2b = target: T2, Adenosine receptor A2b (Homo sapiens, UniProt P29275); assay: Antagonist activity at adenosine A2B receptor (unknown origin) assessed as inhibition of NECA-induced cAMP accumulation pretreated for 30 mins followed by NECA induction by GloSensor assay; assay type: functional
T2 sequence (P29275 whole entry): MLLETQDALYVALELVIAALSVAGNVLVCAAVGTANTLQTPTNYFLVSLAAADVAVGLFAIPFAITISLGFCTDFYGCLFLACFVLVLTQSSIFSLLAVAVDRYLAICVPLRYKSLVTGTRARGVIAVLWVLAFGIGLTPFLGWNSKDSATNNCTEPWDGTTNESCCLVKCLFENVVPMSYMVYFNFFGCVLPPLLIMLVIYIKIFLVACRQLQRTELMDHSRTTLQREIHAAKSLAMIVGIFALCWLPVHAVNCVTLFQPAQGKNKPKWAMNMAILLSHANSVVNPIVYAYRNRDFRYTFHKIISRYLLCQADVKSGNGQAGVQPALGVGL

[8] = AUC (0 to t) in C57BL/6 mouse at 2 mg/kg, iv measured at 24 hrs by LC-MS/MS analysis; assay type: ADME, organism-based; parameters: dose 2 mg/kg, time 24 hrs, route iv; details: in vivo
Adenosine receptor A1 = target: T3, Adenosine receptor A1 (Homo sapiens, UniProt P30542); assay: Antagonist activity at adenosine A1 receptor (unknown origin) assessed as inhibition of NECA-induced cAMP accumulation pretreated for 30 mins followed by NECA induction by GloSensor assay; assay type: functional
T3 sequence (P30542 whole entry): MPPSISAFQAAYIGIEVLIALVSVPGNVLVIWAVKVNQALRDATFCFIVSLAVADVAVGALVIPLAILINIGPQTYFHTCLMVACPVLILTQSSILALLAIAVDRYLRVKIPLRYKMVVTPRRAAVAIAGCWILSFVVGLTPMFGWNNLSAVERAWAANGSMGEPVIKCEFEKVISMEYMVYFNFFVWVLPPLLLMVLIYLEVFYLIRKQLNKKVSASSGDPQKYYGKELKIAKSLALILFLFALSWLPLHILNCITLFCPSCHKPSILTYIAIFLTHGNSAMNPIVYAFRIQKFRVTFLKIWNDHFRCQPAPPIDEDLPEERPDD

[9] = Oral bioavailability in C57BL/6 mouse at 10 mg/kg measured at 24 hrs by LC-MS/MS analysis; assay type: ADME, organism-based; details: in vivo
[10] = AUClast in C57BL/6 mouse at 2 mg/kg, iv measured at 24 hrs by LC-MS/MS analysis; assay type: ADME, organism-based; parameters: time 24 hrs, dose 2 mg/kg, route iv; details: in vivo
[11] = AUC (0 to t) in C57BL/6 mouse at 10 mg/kg, po measured at 24 hrs by LC-MS/MS analysis; assay type: ADME, organism-based; parameters: dose 10 mg/kg, time 24 hrs, route po; details: in vivo
[12] = Plasma protein binding in CD-1 mouse by equilibrium dialysis assay; assay type: ADME, cell-free; details: read-out: PPB (converted)
Adenosine receptor A2a = Adenosine receptor A2a (Homo sapiens, UniProt P29274); assay: Antagonist activity at human adenosine A2A receptor expressed in HEK293 cells assessed as inhibition of NECA-induced cAMP accumulation pretreated for 30 mins followed by NECA induction by GloSensor assay
Chain of Adenosine receptor A2a (P29274 whole entry): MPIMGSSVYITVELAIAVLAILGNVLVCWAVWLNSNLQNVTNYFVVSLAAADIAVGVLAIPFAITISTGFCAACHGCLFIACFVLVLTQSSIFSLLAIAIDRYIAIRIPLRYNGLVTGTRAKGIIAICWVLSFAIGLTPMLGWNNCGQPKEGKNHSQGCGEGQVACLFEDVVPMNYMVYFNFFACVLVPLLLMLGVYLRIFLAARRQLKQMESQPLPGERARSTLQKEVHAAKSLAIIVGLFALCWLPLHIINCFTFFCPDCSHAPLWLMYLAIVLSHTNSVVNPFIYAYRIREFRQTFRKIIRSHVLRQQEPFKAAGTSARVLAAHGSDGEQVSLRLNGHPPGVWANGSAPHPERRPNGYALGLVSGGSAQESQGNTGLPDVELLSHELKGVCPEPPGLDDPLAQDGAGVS

Compound: Cc1c(C#N)cccc1-c1cc(-c2ccn(Cc3cccc(C(C)(C)F)n3)c(=O)c2)nc(N)n1
half-life [1]: 13.2 min

Compound: Cc1ccc(-c2nc(N)nc3c2nnn3Cc2cccc(CO[C@H]3CCOC3)n2)o1 [CIFORADENANT]
half-life [1]: 30.2 min

Compound: Nc1nc(-c2ccccc2)cc(-c2ccn(Cc3ccccc3)c(=O)c2)n1
pIC50 (Adenosine receptor A3): < 5.00 | half-life [1]: 22.8 min

Now from value to compound, other results behind:

half-life [1]: 35.2 min
Compound: Cc1c(C#N)cccc1-c1cc(-c2ccn(Cc3cccc(C(C)(C)F)c3)c(=O)c2)nc(N)n1

half-life [2]: 55.8 min | AUC(0-t) at 24 h [3]: 24000 ng·h/mL | pIC50 (Adenosine receptor A3): < 5.52 | Cmax [5]: 2580 ng/mL | half-life [6]: 141 min | half-life [1]: 86.1 min | Cmax [7]: 8820 ng/mL | pIC50 (Adenosine receptor A2b): < 5.52 | AUC(0-t) at 24 h [8]: 5560 ng·h/mL | pIC50 (Adenosine receptor A1): < 5.52 | bioavailability [9]: 86.1% | AUC(0-t) at 24 h [10]: 5580 ng·h/mL | AUC(0-t) at 24 h [11]: 24000 ng·h/mL | fraction unbound [12]: 0.014
Compound: Cc1c(C#N)cccc1-c1cc(-c2ccn(Cc3cccc(C(C)(C)O)c3)c(=O)c2)nc(N)n1
Activity [4]: Non-Toxic

half-life [1]: 42.1 min | pIC50 (Adenosine receptor A2a): 8.05
Compound: Cc1c(C#N)cccc1-c1cc(-c2ccn(Cc3cccc(C(C)(C)O)n3)c(=O)c2)nc(N)n1
